Legend:
Format in all cases: cell-based
human TLR9 = target: T1, human TLR9 (Homo sapiens, UniProt Q9NR96); assay: TLR9 inhibition reporter assay (HEK-Blue cells, SEAP reporter, ODN2006 stimulation); conditions: HEK-Blue cells overexpressing human TLR9, SEAP reporter, ODN2006 5 nM
T1 construct: host or cells: HEK-Blue cells
T1 sequence (Q9NR96 26-1032): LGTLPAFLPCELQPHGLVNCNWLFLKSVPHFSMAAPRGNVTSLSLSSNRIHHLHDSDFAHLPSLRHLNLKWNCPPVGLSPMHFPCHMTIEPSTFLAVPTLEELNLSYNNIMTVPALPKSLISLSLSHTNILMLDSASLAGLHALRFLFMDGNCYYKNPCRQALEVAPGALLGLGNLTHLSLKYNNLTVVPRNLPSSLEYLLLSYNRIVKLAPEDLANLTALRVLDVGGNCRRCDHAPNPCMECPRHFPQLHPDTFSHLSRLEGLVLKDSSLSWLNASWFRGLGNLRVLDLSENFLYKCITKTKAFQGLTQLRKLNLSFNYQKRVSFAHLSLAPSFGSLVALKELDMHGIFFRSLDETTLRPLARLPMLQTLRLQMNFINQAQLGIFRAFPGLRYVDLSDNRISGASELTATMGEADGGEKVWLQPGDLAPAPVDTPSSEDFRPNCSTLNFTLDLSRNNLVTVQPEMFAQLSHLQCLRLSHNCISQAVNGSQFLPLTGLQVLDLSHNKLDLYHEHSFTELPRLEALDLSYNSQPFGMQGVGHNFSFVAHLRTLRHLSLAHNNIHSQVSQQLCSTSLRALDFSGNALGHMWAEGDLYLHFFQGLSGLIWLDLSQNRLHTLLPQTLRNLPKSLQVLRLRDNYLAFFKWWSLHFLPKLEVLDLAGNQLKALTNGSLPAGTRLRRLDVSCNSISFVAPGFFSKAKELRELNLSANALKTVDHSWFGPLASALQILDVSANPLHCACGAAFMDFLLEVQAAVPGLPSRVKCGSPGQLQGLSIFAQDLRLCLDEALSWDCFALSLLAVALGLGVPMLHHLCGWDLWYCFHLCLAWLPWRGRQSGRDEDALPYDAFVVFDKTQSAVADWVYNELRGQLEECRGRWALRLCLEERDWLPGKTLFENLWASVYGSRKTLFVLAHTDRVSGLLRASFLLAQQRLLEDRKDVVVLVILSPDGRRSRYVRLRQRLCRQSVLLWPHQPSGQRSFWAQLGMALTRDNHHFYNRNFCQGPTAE
Method in brief: (§1)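 Ligand levels differed by receptor: TLR7 got gardiquimod at 7.5 μM, TLR8 got R848 at 15.9 μM, and TLR9 got ODN2006 at 5 nM, each added after a 30-min room-temperature compound exposure. Incubation lasted 22 h at 37° C before colorimetric SEAP detection.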

human TLR8 = target: T2, human TLR8 (Homo sapiens, UniProt Q9NR97); assay: TLR8 inhibition reporter assay (HEK-Blue cells, SEAP reporter, R848 stimulation); conditions: HEK-Blue cells overexpressing human TLR8, SEAP reporter, R848 15.9 μM
T2 construct: host or cells: HEK-Blue cells
T2 sequence (Q9NR97 27-1041): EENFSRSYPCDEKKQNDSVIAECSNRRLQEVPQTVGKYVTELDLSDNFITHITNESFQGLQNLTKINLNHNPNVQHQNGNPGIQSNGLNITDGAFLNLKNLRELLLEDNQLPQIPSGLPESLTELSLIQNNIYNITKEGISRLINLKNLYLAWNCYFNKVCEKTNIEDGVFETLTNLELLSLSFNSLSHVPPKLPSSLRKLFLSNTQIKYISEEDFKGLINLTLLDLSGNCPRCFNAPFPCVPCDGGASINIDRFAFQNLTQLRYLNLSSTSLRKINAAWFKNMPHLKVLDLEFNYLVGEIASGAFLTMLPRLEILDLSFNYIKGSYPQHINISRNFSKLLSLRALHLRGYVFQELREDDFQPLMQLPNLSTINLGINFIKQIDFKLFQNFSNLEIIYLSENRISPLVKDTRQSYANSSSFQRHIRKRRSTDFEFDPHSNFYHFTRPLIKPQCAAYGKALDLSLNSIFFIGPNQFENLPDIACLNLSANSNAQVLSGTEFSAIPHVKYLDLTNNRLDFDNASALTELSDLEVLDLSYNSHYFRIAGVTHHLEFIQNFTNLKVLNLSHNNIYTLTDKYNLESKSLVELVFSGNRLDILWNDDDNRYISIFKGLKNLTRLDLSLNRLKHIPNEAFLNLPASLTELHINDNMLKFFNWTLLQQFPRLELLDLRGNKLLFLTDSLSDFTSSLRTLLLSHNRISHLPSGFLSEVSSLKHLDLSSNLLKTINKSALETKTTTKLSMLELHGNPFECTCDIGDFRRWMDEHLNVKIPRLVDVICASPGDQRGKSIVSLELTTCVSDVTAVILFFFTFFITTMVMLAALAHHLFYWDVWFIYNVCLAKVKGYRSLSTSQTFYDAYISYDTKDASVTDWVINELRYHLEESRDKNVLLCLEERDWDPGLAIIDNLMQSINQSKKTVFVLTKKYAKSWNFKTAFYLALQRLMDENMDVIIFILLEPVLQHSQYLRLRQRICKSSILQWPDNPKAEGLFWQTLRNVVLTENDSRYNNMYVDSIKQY
Method in brief: as §1

human TLR7 = target: T3, human TLR7 (Homo sapiens, UniProt Q9NYK1); assay: TLR7 inhibition reporter assay (HEK-Blue cells, SEAP reporter, gardiquimod stimulation); conditions: HEK-Blue cells overexpressing human TLR7, SEAP reporter, gardiquimod 7.5 μM
T3 construct: host or cells: HEK-Blue cells
T3 sequence (Q9NYK1 27-1049): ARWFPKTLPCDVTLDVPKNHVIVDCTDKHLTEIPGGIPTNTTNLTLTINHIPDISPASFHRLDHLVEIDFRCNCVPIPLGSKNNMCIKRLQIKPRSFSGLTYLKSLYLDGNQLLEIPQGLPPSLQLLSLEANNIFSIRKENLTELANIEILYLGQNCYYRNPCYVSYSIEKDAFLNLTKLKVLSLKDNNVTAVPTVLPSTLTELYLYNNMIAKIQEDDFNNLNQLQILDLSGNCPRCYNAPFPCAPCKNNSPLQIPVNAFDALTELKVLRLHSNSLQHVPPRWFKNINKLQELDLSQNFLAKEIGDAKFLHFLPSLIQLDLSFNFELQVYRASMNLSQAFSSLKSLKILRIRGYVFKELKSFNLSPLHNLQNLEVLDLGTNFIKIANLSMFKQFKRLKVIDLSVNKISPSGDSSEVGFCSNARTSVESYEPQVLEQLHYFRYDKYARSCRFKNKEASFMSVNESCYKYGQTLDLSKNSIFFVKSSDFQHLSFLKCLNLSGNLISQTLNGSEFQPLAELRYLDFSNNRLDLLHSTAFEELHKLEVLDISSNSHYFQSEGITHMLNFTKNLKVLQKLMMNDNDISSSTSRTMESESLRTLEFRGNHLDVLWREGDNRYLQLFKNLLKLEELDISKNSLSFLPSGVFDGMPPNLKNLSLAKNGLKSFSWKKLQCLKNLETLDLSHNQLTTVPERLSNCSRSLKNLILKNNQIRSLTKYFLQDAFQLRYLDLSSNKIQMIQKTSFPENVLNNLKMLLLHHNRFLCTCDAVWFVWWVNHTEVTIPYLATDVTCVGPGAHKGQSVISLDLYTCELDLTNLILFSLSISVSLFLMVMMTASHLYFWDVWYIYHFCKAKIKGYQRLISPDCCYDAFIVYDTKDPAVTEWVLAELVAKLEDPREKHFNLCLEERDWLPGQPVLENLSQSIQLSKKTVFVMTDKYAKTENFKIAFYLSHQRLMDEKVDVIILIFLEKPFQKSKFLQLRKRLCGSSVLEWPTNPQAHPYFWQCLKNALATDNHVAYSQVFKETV
Method in brief: as §1

SMILES	IC50 (human TLR9) [nM]	IC50 (human TLR8) [nM]	IC50 (human TLR7) [nM]
Cc1cc(-c2[nH]nc(C(=O)NC3CCNCC3)c2CC(F)(F)F)cn2ncnc12 [compound 194]	9220	0.37	0.9
Cc1cc(-c2[nH]nc(-c3nc4c(s3)CN(C(=O)C[C@H](C)O)CC4)c2C(C)C)cn2ncnc12 [Example 269]	6280	2.55	4.31
Cc1cc(-c2[nH]nc(-c3ccc(C4CCN(CC(C)(C)C)CC4)cn3)c2C(C)C)cn2ncnc12 [Example 373]	42100	34.5	81.9
CNC(=O)CN1CCC(NC(=O)c2n[nH]c(-c3cc(C)c4ncnn4c3)c2C(C)C)CC1 [compound 177]	9790	5.63	3.23
COc1cc(-c2[nH]nc(C(=O)NCC(C)(C)N3CCOCC3)c2C(C)C)cn2ncnc12 [Example 26]	7210	413	442
Cc1cc(-c2[nH]nc(C(=O)NC3CCN(C(C)C)CC3)c2C(C)C)cn(C)c1=O [Example 39]	3560	25.5	8.31
Cc1cc(-c2[nH]nc(C(=O)NC3CN(CC4(C)COC4)C3)c2C(C)C)cn2ncnc12 [Example 154]	9310	3.33	11.9
Cc1cc(-c2[nH]nc(C(=O)N[C@H]3CC[C@@H](N(CCC(C)(C)C)CCC(C)(C)C)CC3)c2C(C)C)cn2ncnc12 [Example 90]	11100	1.13	0.8
COc1cc(-c2[nH]nc(-c3ccc(C4CCNCC4)cn3)c2C(C)C)cn2ncnc12 [Example 339, 6-(4-isopropyl-3-(5-(piperidin-4-yl)pyridin-2-yl)-1H-pyrazol-5-yl)-8-methoxy-[1,2,4]triazolo[1,5-a]pyridine]	36600	3.86	19.9
Cc1cc(-c2[nH]nc(C(=O)NC3CCC(N(C)C)CC3)c2C(C)C)cn2ncnc12 (stereo not drawn) [Example 7]	5470	6.59	7.8
Cc1cc(-c2[nH]nc(C3CCC(NCC4(C)COC4)CC3)c2C(C)C)cn2ncnc12 (single isomer, unassigned) [Example 280]	4960	0.73	1.26
COCCN1CCC(c2cnc(-c3n[nH]c(-c4cc(OC)c5ncnn5c4)c3C(C)C)cn2)CC1 [Example 396]	> 50000	53.9	102
COc1ncc(CN2CCC(NC(=O)c3n[nH]c(-c4cc(C)c5ncnn5c4)c3C(C)C)CC2)cn1 [Example 157]	16400	11.9	37.4
Cc1cc(-c2[nH]nc(-c3ncc(C4CCN(CC(C)(C)O)CC4)cn3)c2C(C)C)cn2ncnc12 [Example 390]	> 50000	481	93.6
Cc1cc(-c2[nH]nc(C(=O)N3CC[C@@H](N(C)C)C3)c2C(C)C)cn2ncnc12 [Example 18]	3740	2.57	5.69
Cc1cc(-c2[nH]nc(-c3cnc(C4CCNCC4)nc3)c2C(C)C)cn2ncnc12 [Example 343]	> 50000	3.3	24.1
Cc1cc(-c2[nH]nc(C(=O)N[C@H]3CC[C@@H](NC4COC4)CC3)c2C(C)C)cn2ncnc12 [Example 86]	6420	0.7	1.34
Cc1cc(-c2[nH]nc(C(=O)N[C@H]3CC[C@@H](NCC4CCCC4)CC3)c2C(C)C)cn2ncnc12 [Example 94]	40700	3.14	1.94
COc1cc(-c2[nH]nc(-c3ccc(C4CN(C(=O)CN(C)C)C4)cc3)c2C(C)C)cn2ncnc12 [compound 335]	> 50000	11.1	15.5
Cc1cc(-c2[nH]nc(-c3ccc(C4CCN(C)CC4)nn3)c2C(C)C)cn2ncnc12 [Example 357]	38100	> 3130	1280
Cc1cc(-c2[nH]nc(-c3ccc4c(c3)CCN(C(=O)CN(C)C)C4)c2C(C)C)cn2ncnc12 [Example 268, 2-(dimethylamino)-1-(6-(4-isopropyl-5-(8-methyl-[1,2,4]triazolo[1,5-a]pyridin-6-yl)-1H-pyrazol-3-yl)-3,4-dihydroisoquinolin-2(1H)-yl)ethan-1-one]	> 50000	65.1	41.1
CC(=O)N1CCc2nc(-c3n[nH]c(-c4cc(C)c5ncnn5c4)c3C(C)C)sc2C1 [Example 276]	> 50000	> 3130	975
Cc1cc(-c2[nH]nc(-c3cccnc3)c2C(C)C)cn2ncnc12 [Example 224]	9030	0.63	0.56
Cc1cc(-c2[nH]nc(C(=O)N[C@H]3CC[C@@H](NCC(C)(C)C)CC3)c2C(C)C)cn2ncnc12 [Example 89]	4100	18.9	1.48

Source: US20230117470A1, “SUBSTITUTED PYRAZOLE COMPOUNDS AS TOLL RECEPTOR INHIBITORS” (BRISTOL-MYERS SQUIBB COMPANY, priority 2019, published 2023)
